Here are results for four compounds from publication PMC10202359, “Nicotinamide N-methyltransferase (NNMT) regulates the glucocorticoid signaling pathway during the early phase of adipogenesis” (Scientific Reports, 2023).

Assay [1] relates to Nnmt expression in 3T3-L1 cells. As to the kind of experiment: Nnmt mRNA by real-time PCR in 3T3-L1. The format is cell-based, mouse. The note with it: post-confluent 3T3-L1 treated 48 h with individual DIM components, vs unstimulated cells. The procedure: 3T3-L1 Mouse Embryonic Fibroblasts were purchased from American Type Culture Collection (ATCC CL-173). The cells were propagated and maintained in Dulbecco’s modified Eagle’s medium (DMEM, Gibco) supplemented with 10% calf serum (FCS) at 37 °C in 5% CO2 atmosphere. Subconfluents cells were expanded and utilized for the subsequent experiments at the passages 3–6. To induce differentiation, 2-day post-confluent 3T3-L1 pre-adipocytes were cultured for 48 h with DIM (DMEM supplemented with 10% fetal bovine serum (FBS), 1.0 µM Dexamethasone (G. Biosciences), […] Insulin (Sigma) and 0.5 mM IBMX (Sigma). Two days after induction the DIM medium was removed and the cells were maintained in DMED supplemented with 10% FBS and […] Insulin, which was replaced every 48 h, until the cells became fully differentiated (8–10 days after induction). C3H10T1/2 cells were purchased from American Type Culture Collection (ATCC, clone 8, CCL-226, were grown and induced to differentiate following the same protocol, with cell cultures < 3 passages. […] Real-time PCRs were performed using SYBR Green PCR Master Mix (Applied Biosystems) with an ABI PRISM 7900HT Sequence Detection System (Applied Biosystems). RT-PCR data were normalized to GAPDH and expressed relative to control (ddCt method).
(Quantitative PCR measures a nucleic acid by following its amplification.)

In a further assay the target is PRMT3 (Homo sapiens, UniProt O60678). Put plainly: Methyltransferase Hot Spot radioisotope assay, PRMT3. The format is biochemical. The note with it: 10-dose, threefold dilution; CC-410 from 300 μM, control from 100 μM; substrate Histone H4; read-out: IC50* (M) PRMT3. The procedure:
(§1) CC-410 was screened in biochemical assays for activity against a panel of 11 methyltransferases (MT) by using the radioisotope (3H-AdoMet) based MT Hot Spot Assay. All the assays were performed by Reaction Biology Corporation (RBC, Malven, PA, USA). Briefly CC-410 was incubated with the selected MTs, corresponding substrates, and radiolabeled SAM (S-Adenosyl-L-[methyl-3 H]methionine). […] Reaction mixtures were incubated and spotted onto filter papers, which were then washed to remove unreacted SAM, leaving the bound radiolabeled product. Detection of the radiolabeled, methylated product was performed via a nanoliter-scale radioisotope filter binding platform. […] For each assay, control compounds were included as positive controls for enzyme function and assay reproducibility. […] IC50 was calculated by non-linear least square fitting dose–response curve.

Another assay concerns the target METTL21A (Homo sapiens, UniProt Q8WXB1). As to the kind of experiment: Methyltransferase Hot Spot radioisotope assay, METTL21A. The format is biochemical. The conditions noted are these: 10-dose, threefold dilution; CC-410 from 300 μM, control from 100 μM; substrate HSPA8-[CTD]. On the procedure: as §1
The next assay has as its target T1, DNMT3a (Homo sapiens, UniProt Q9Y6K1).
T1 construct: purchased Reaction Biology Corporation
As to the kind of experiment: Methyltransferase Hot Spot radioisotope assay, DNMT3a. The format is biochemical. The procedure:
(§2) CC-410 was screened in biochemical assays for activity against a panel of 11 methyltransferases (MT) by using the radioisotope (3H-AdoMet) based MT Hot Spot Assay. All the assays were performed by Reaction Biology Corporation (RBC, Malven, PA, USA). Briefly CC-410 was incubated with the selected MTs, corresponding substrates, and radiolabeled SAM (S-Adenosyl-L-[methyl-3 H]methionine). The specific MTs assessed, and the corresponding substrates are as follows: DNMT1- Poly dl-dC, DNMT3a- Lambda DNA, DNMT3b- Lambda DNA, DOT1L- Nucleosomes, EZH2 Complex- Core Histone, METTL21A- HSPA8-[CTD], NRMT1- RCC1, PRMT3- Histone H4, PRMT5/MEP50- Histone H2A, SET1b -Core Histone Complex and SMYD2- Nucleosomes. Reaction mixtures were incubated and spotted onto filter papers, which were then washed to remove unreacted SAM, leaving the bound radiolabeled product. Detection of the radiolabeled, methylated product was performed via a nanoliter-scale radioisotope filter binding platform. […] For each assay, control compounds were included as positive controls for enzyme function and assay reproducibility. […] IC50 was calculated by non-linear least square fitting dose–response curve.

In another assay the target is T2, NRMT1 (Homo sapiens, UniProt Q9BV86).
T2 sequence (Q9BV86 1-223): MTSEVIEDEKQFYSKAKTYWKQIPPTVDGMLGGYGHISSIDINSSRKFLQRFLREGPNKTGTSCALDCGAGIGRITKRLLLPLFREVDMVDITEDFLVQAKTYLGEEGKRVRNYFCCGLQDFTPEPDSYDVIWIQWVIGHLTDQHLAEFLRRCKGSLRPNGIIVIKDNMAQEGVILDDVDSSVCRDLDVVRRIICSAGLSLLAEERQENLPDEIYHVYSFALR
Put plainly: Methyltransferase Hot Spot radioisotope assay, NRMT1. It is filed as biochemical. The conditions noted are these: 10-dose, threefold dilution; CC-410 from 300 μM, control from 100 μM; substrate RCC1. On the procedure: as §2

A further assay concerns the target T3, SET1b Complex (Homo sapiens, UniProt Q9UPS6).
T3 construct: purchased Reaction Biology Corporation
As to the kind of experiment: Methyltransferase Hot Spot radioisotope assay, SET1b Complex. The conditions noted are these: 10-dose, threefold dilution; CC-410 from 300 μM, control from 100 μM; substrate Core Histone; read-out: IC50* (M) SET1b Complex. The format is biochemical. The procedure: as §2

In a further assay the target is T4, DNMT3b (Homo sapiens, UniProt Q9UBC3).
T4 construct: purchased Reaction Biology Corporation
As to the kind of experiment: Methyltransferase Hot Spot radioisotope assay, DNMT3b. The format is biochemical. The procedure: as §2

Chain of METTL21A (Q8WXB1 whole entry, species assumed): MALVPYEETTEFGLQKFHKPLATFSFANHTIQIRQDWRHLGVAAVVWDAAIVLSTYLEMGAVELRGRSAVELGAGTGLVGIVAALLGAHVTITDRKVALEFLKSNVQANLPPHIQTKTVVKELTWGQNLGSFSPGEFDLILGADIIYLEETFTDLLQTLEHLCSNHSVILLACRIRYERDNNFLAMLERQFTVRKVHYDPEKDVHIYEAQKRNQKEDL
T1 sequence (Q9Y6K1 whole entry, looked up, species assumed): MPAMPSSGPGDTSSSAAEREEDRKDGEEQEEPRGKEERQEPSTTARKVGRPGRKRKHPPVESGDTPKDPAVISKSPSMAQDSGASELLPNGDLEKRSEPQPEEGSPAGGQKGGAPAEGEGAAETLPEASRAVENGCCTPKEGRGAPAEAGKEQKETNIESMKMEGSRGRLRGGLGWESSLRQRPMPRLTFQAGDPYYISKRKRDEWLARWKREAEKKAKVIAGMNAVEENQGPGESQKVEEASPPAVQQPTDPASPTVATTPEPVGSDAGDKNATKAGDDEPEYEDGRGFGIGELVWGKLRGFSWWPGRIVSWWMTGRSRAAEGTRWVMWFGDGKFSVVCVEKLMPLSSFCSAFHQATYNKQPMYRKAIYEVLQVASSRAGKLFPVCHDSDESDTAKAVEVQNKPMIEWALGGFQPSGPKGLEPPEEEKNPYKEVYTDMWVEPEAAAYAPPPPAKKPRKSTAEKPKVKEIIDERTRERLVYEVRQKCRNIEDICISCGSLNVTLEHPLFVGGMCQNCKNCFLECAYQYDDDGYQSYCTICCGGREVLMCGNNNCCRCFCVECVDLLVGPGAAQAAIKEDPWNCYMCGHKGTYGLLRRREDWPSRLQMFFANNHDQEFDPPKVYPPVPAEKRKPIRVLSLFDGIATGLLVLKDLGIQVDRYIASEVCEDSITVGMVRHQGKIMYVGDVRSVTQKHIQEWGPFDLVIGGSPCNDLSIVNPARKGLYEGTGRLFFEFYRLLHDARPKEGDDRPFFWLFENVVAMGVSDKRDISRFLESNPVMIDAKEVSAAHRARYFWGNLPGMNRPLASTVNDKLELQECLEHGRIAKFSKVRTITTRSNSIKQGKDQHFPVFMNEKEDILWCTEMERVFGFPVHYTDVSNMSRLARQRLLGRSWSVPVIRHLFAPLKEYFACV
Chain of PRMT3 (O60678 whole entry, species assumed): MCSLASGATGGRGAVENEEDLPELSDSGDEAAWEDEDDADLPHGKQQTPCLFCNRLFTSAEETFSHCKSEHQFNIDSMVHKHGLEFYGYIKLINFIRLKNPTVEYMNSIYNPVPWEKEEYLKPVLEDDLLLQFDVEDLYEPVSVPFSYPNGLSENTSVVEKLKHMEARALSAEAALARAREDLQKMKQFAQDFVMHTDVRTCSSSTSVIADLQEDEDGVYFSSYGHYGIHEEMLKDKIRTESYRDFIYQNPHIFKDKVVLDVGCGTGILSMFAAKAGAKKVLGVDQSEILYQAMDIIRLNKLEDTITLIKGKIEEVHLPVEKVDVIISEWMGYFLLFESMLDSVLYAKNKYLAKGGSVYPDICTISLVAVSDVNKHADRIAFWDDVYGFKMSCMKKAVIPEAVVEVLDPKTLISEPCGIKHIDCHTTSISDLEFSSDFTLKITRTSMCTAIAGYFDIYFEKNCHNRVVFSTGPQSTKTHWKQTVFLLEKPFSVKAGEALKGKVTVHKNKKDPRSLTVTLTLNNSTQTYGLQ

Turning to `C[C@@H]1C[C@H]2[C@@H]3CCC4=CC(=O)C=C[C@]4(C)[C@@]3(F)[C@@H](O)C[C@]2(C)[C@@]1(O)C(=O)CO` [DEX, dexamethasone], the “Nnmt expression (mRNA, RT-PCR)” value in assay [1] is “induction comparable with that of the whole cocktail”.
On the same count and under the same terms, then `CC(C)Cn1c(=O)n(C)c(=O)c2[nH]cnc21` [IBMX, 3-isobutyl-1-methylxanthine], with “neither insulin nor IBMX impacted Nnmt expression significantly”.
In the case of `Nc1ncnc2c1ncn2[C@@H]1O[C@H](CSCC[C@H](N)C(=O)O)[C@@H](O)[C@H]1O` [SAH, S-(5′-Adenosyl)-L-homocysteine, reference compound], the half-maximal inhibitory concentration (IC50) on PRMT3 is 3.88e-06 M; at METTL21A it was 76.1 µM; against DNMT3a, 0.511 µM; at NRMT1 it was 1.68 µM; on SET1b Complex it was 2e-05 M; against DNMT3b, 0.259 µM.
As to “insulin: component of the differentiation-inducing medium (DIM)”, the “Nnmt expression (mRNA, RT-PCR)” value in assay [1] is “neither insulin nor IBMX impacted Nnmt expression significantly”.

As usually defined, the IC50 is the concentration needed to halve the response being measured.
